{"source": "patent US12281329B2", "about": "“Compositions and methods for immune cell modulation in adoptive immunotherapies” (Fate Therapeutics, Inc., priority 2016, dated 2025)", "test_system": "T cells", "experiment": "In vitro T cell culture compound screen, flow cytometry for CCR7+CD62L+ cells", "assay_type": "cell-based, human", "conditions": "for CD8 Hit / CD4 Hit: 10 μM, about 6 days, anti-CD3/anti-CD28 beads, viability and cell number Z-score > −1; for CD8 Hit: hit: Z-score > +2 for percent or relative number CCR7+CD62L+ in viable CD8+; for CD4 Hit: hit: Z-score > +2 for percent or relative number CCR7+CD62L+ in viable CD4+", "excerpt": "In Vitro T Cell Culture. Fresh leukopaks (AllCells, Alameda, CA) were obtained from healthy donors, from which T cells were negatively selected using the EasySep Human T cell Enrichment Kit (Stem Cell Technologies, Vancouver, Canada). The freshly isolated T cells were aliquoted and cryopreserved. On the day the screens were initiated, T cells were thawed and washed into X-Vivo 15 with 5% human AB serum, IL-2, pen/strep, and additional supplements. Cells were dispensed into flat-bottom 384-well plates at 5×10^5 cells/ml with anti-CD3/Anti-CD28 dynabeads (ThermoFisher, Waltham, MA) at a 3:1 bead-to-cell ratio. Individual compounds were added at a final concentration of 10 μM to each well from column 3 to column 22 of each plate. Positive and negative controls were added to additional wells. Cells were incubated for about 6 days at 37 degrees with 5% CO2.\nFlow Cytometry. On Day 6 of culture, cells were stained with a fixable viability marker and fluorophore-conjugated antibodies: CD3, CD4, CD8, CD45RA, CD45RO, CD62L, CCR7, CD27, and CD122 (BD Biosciences, San Jose, CA; and BioLegend, San Diego, CA). Fluorescent absolute counting beads (Spherotech, Lake Forest, IL) were added just prior to acquisition. Data acquisition was performed on a BD Fortessa X-20 (BD Biosciences) and data were analyzed using Treestar software (FlowJo, Ashland, OR) and Spotfire (Tibco, Boston, MA).\nThese cells are characterized by expression of CCR7 and CD62L. Therefore, cells co-expressing both of these identifying markers were evaluated. Within the viable CD4+ population and viable CD8+ population, the percent of cells co-expressing CCR7 and CD62L was determined. The expression of either CD62L or CCR7 on T cells, as indicative of the desired T cell subsets, have been described as having favorable functional characteristics for CAR-T cell therapy, and potentially other adoptive T cell therapies.\nThe number of events in each of these gates relative to the number of absolute counting beads in each sample was calculated, defining a relative measure of the absolute number of naïve, stem cell memory, or central memory T cells within the CD4+ and/or CD8+ populations. A z-Score relative to the screened compound samples within each 384-well plate was calculated for each of these four values: 1) percent CCR7+CD62L+ in CD4+, 2) percent CCR7+CD62L+ in CD8+, 3) absolute relative number of CCR7+CD62L+ in CD4+, and 4) absolute relative number of CCR7+CD62L+ in CD8+(FIGS. 1A and 1B). Z-scores were also calculated for the percent viability of all cells within each sample and the relative absolute number of cells within each sample. A “Z-Score” is a statistical measurement of a score's relationship to the mean in a group of scores. AZ-score of 0 means the score is the same as the mean. AZ-score can also be positive or negative, indicating whether it is above or below the mean and by how many standard deviations.", "key": {"[1]": {"conditions": "at least in viable CD8+ population"}, "[2]": {"conditions": "in both viable CD4+ population and viable CD8+ population"}}, "note": "Where a name gives a salt, the structure may show the parent alone.", "data": [{"compound": "2-Naphthacenecarboxamide, 7-chloro-4-(dimethylamino)-1,4,4a,5,5a,6,11,12a-octahy", "values": [{"measurement": "CD8 Hit", "value": "CD8"}, {"measurement": "number or ratio of cells co-expressing CCR7 and CD62L", "setting": "[1]", "value": "increased"}]}, {"compound": "CCC(CO)Nc1nc(NCc2ccccc2)c2ncn(C(C)C)c2n1", "note": "(stereo in doubt) [Roscovitine, (S)-Isomer]", "values": [{"measurement": "CD4 Hit", "value": "CD4"}, {"measurement": "number or ratio of cells co-expressing CCR7 and CD62L", "setting": "[1]", "value": "increased"}]}, {"compound": "CCCc1c(-c2ccc(O)cc2)nn(-c2ccc(O)cc2)c1-c1ccc(O)cc1", "note": "[1,3,5-tris(4-hydroxyphenyl)-4-propyl-1H-pyrazole]", "values": [{"measurement": "CD4 Hit", "value": "CD4"}, {"measurement": "number or ratio of cells co-expressing CCR7 and CD62L", "setting": "[1]", "value": "increased"}]}, {"compound": "N.S=C(S)N1CCCC1", "note": "[1-Pyrrolidinecarbodithioic acid, ammonium salt]", "values": [{"measurement": "CD4 Hit", "value": "CD4"}, {"measurement": "number or ratio of cells co-expressing CCR7 and CD62L", "setting": "[1]", "value": "increased"}]}, {"compound": "Nc1ncn([C@@H]2O[C@H](CO)[C@@H](O)[C@H]2O)c(=O)n1", "note": "[5-Azacytidine]", "values": [{"measurement": "CD4 Hit", "value": "CD4"}, {"measurement": "CD8 Hit", "value": "CD8"}, {"measurement": "number or ratio of cells co-expressing CCR7 and CD62L", "setting": "[2]", "value": "increased"}]}, {"compound": "Sc1ncnc2nc[nH]c12", "note": "[6-Mercaptopurine]", "values": [{"measurement": "CD4 Hit", "value": "CD4"}, {"measurement": "CD8 Hit", "value": "CD8"}, {"measurement": "number or ratio of cells co-expressing CCR7 and CD62L", "setting": "[2]", "value": "increased"}]}, {"compound": "Oc1c(Cl)cc(Cl)c2cccnc12", "note": "[8-Quinolinol, 5,7-dichloro-]", "values": [{"measurement": "CD4 Hit", "value": "CD4"}, {"measurement": "CD8 Hit", "value": "CD8"}, {"measurement": "number or ratio of cells co-expressing CCR7 and CD62L", "setting": "[2]", "value": "increased"}]}, {"compound": "Oc1c(I)cc(Cl)c2cccnc12", "note": "[8-Quinolinol, 5-chloro-7-iodo-]", "values": [{"measurement": "CD4 Hit", "value": "CD4"}, {"measurement": "CD8 Hit", "value": "CD8"}, {"measurement": "number or ratio of cells co-expressing CCR7 and CD62L", "setting": "[2]", "value": "increased"}]}, {"compound": "CC[n+]1c(/C=C/C=C2/N(C)c3ccccc3C2(C)C)sc2ccccc21.[I-]", "note": "[AC-93253 iodide]", "values": [{"measurement": "CD4 Hit", "value": "CD4"}, {"measurement": "CD8 Hit", "value": "CD8"}, {"measurement": "number or ratio of cells co-expressing CCR7 and CD62L", "setting": "[2]", "value": "increased"}]}, {"compound": "COc1ccc(-c2cc3nccn3c(Nc3ncccc3C(N)=O)n2)cc1OC", "note": "[BAY 61-3606]", "values": [{"measurement": "CD4 Hit", "value": "CD4"}, {"measurement": "number or ratio of cells co-expressing CCR7 and CD62L", "setting": "[1]", "value": "increased"}]}, {"compound": "COc1cc2nc(N3CCCN(C)CC3)nc(NC3CCN(Cc4ccccc4)CC3)c2cc1OC", "note": "[BIX01294]", "values": [{"measurement": "CD4 Hit", "value": "CD4"}, {"measurement": "number or ratio of cells co-expressing CCR7 and CD62L", "setting": "[1]", "value": "increased"}]}, {"compound": "CC[N+](C)(C)c1cccc(O)c1", "note": "[Edrophonium chloride]", "values": [{"measurement": "CD8 Hit", "value": "CD8"}, {"measurement": "number or ratio of cells co-expressing CCR7 and CD62L", "setting": "[1]", "value": "increased"}]}, {"compound": "C[C@]12CC[C@@H]3c4ccc(O)cc4C[C@@H](CCCCCCCCC[S+]([O-])CCCC(F)(F)C(F)(F)F)[C@H]3[C@@H]1CC[C@@H]2O", "note": "(some centres unmarked) [Fulvestrant]", "values": [{"measurement": "CD8 Hit", "value": "CD8"}, {"measurement": "number or ratio of cells co-expressing CCR7 and CD62L", "setting": "[1]", "value": "increased"}]}, {"compound": "CC(C)C1CCC2(CO2)C2C(=O)OCC(C(=O)O)=CC12", "note": "(centres unmarked) [Heptelidic acid]", "values": [{"measurement": "CD4 Hit", "value": "CD4"}, {"measurement": "CD8 Hit", "value": "CD8"}, {"measurement": "number or ratio of cells co-expressing CCR7 and CD62L", "setting": "[2]", "value": "increased"}]}, {"compound": "O=C(N/N=C/c1ccc([N+](=O)[O-])o1)c1ccc(O)cc1", "note": "[Nifuroxazide]", "values": [{"measurement": "CD8 Hit", "value": "CD8"}, {"measurement": "number or ratio of cells co-expressing CCR7 and CD62L", "setting": "[1]", "value": "increased"}]}, {"compound": "C=CCc1cccc(/C=N/NC(=O)CN2CCN(Cc3ccccc3)CC2)c1O", "note": "[PAC-1]", "values": [{"measurement": "CD4 Hit", "value": "CD4"}, {"measurement": "number or ratio of cells co-expressing CCR7 and CD62L", "setting": "[1]", "value": "increased"}]}, {"compound": "Oc1cccc(-c2nc(N3CCOCC3)c3oc4ncccc4c3n2)c1", "note": "[PI-103]", "values": [{"measurement": "CD4 Hit", "value": "CD4"}, {"measurement": "CD8 Hit", "value": "CD8"}]}, {"compound": "C=CC1=C(C)c2cc3[nH]c(cc4nc(cc5[nH]c(cc1n2)c(C)c5CCC(=O)O)C(CCC(=O)O)=C4C)c(C)c3C=C", "note": "[Protoporphyrin IX disodium]", "values": [{"measurement": "CD4 Hit", "value": "CD4"}, {"measurement": "number or ratio of cells co-expressing CCR7 and CD62L", "setting": "[1]", "value": "increased"}]}, {"compound": "CN(C)c1ccc(C=C2C(=O)Nc3ccccc32)cc1", "note": "[SU 4312]", "values": [{"measurement": "CD8 Hit", "value": "CD8"}, {"measurement": "number or ratio of cells co-expressing CCR7 and CD62L", "setting": "[1]", "value": "increased"}]}, {"compound": "CN[C@H]1CC[C@@H](c2ccc(Cl)c(Cl)c2)c2ccccc21", "note": "[Sertraline]", "values": [{"measurement": "CD4 Hit", "value": "CD4"}, {"measurement": "CD8 Hit", "value": "CD8"}]}, {"compound": "CCCc1nc2c(C)cc(-c3nc4ccccc4n3C)cc2n1Cc1ccc(-c2ccccc2C(=O)O)cc1", "note": "[Telmisartan]", "values": [{"measurement": "CD4 Hit", "value": "CD4"}, {"measurement": "number or ratio of cells co-expressing CCR7 and CD62L", "setting": "[1]", "value": "increased"}]}, {"compound": "CC(C)(C)c1ccc(C(O)CCCN2CCC(C(O)(c3ccccc3)c3ccccc3)CC2)cc1", "note": "(centres unmarked) [Terfenadine]", "values": [{"measurement": "CD4 Hit", "value": "CD4"}, {"measurement": "number or ratio of cells co-expressing CCR7 and CD62L", "setting": "[1]", "value": "increased"}]}, {"compound": "C/C=C(/C)C(=O)O[C@H]1C(C)=C2[C@H]([C@@H]1OC(=O)CCCCCCC)[C@@](C)(OC(C)=O)C[C@H](OC(=O)CCC)[C@@]1(O)[C@H]2OC(=O)[C@@]1(C)O", "note": "[Thapsigargin]", "values": [{"measurement": "CD8 Hit", "value": "CD8"}, {"measurement": "number or ratio of cells co-expressing CCR7 and CD62L", "setting": "[1]", "value": "increased"}]}, {"compound": "O=C(O)Cc1cc(I)c(Oc2ccc(O)c(I)c2)c(I)c1", "note": "[Tiratricol]", "values": [{"measurement": "CD4 Hit", "value": "CD4"}, {"measurement": "CD8 Hit", "value": "CD8"}, {"measurement": "number or ratio of cells co-expressing CCR7 and CD62L", "setting": "[2]", "value": "increased"}]}, {"compound": "NC1CCN(c2nc3c(cc2F)c(=O)c(C(=O)O)cn3-c2ccc(F)cc2F)C1", "note": "(centres unmarked) [Tosufloxacin hydrochloride]", "values": [{"measurement": "CD4 Hit", "value": "CD4"}, {"measurement": "number or ratio of cells co-expressing CCR7 and CD62L", "setting": "[1]", "value": "increased"}]}, {"compound": "N#CC(=C(/N)Sc1ccccc1N)/C(C#N)=C(\\N)Sc1ccccc1N", "note": "[U0126]", "values": [{"measurement": "CD4 Hit", "value": "CD4"}, {"measurement": "number or ratio of cells co-expressing CCR7 and CD62L", "setting": "[1]", "value": "increased"}]}, {"compound": "Diethylenetriaminepentaacetic acid, penta sodium", "values": [{"measurement": "CD4 Hit", "value": "CD4"}, {"measurement": "CD8 Hit", "value": "CD8"}, {"measurement": "number or ratio of cells co-expressing CCR7 and CD62L", "setting": "[2]", "value": "increased"}]}]}
